Data as given in US11771673B2, “On site generated performic acid compositions for teat treatment” (ECOLAB USA INC., priority 2018, dated 2023).

Test: Accelerated stability of hydrogen peroxide premixes with different self-indicators under 40° C.
Type: physicochemical
Settings: approximately 13 weeks
Method: The hydrogen peroxide premixes were prepared according to Table 10 with differing types of FD&C dyes. The compositions were stored in a 40° C. oven for approximately 13 weeks. Their stability, as evaluated by the presence of hydrogen peroxide, was compared and is depicted in Table 11.

SMILES: O=S(=O)([O-])c1ccc(N=Nc2c(O)ccc3cc(S(=O)(=O)[O-])ccc23)cc1.[Na+].[Na+] [FD&C yellow 6]
- stability of dye in hydrogen peroxide premix: significantly more stable than FD&C yellow 5
